Results: publication PMC5513037, “Examining the influence of specificity ligands and ATP-competitive ligands on the overall effectiveness of bivalent kinase inhibitors” (Proteome Science, 2017)

Assays:
ATM = ATM (Homo sapiens, UniProt Q13315); test: biochemical
NRBP1 = NRBP1 (Homo sapiens, UniProt Q9UHY1); test: biochemical
BUB1B = target: T1, BUB1B (Homo sapiens, UniProt O60566); test: Imatinib-matrix competition in K562 lysate; format: binding; details: read-out: RB50 (the source's name)
T1 construct: endogenous in cells; host or cells: K562
Text: (§1) Data were visualized for further analysis using Spotfire DXP.

PRKDC = target: T2, PRKDC (Homo sapiens, UniProt P78527); test: Imatinib-matrix competition in K562 lysate; format: binding; details: read-out: RB50 (the source's name)
T2 construct: endogenous in cells; host or cells: K562
Text: as §1

EEF2K = target: T3, EEF2K (Homo sapiens, UniProt O00418); test: Imatinib-matrix competition in K562 lysate; format: binding; details: read-out: RB50 (the source's name)
T3 construct: endogenous in cells; host or cells: K562 lysate
T3 sequence (O00418 1-725): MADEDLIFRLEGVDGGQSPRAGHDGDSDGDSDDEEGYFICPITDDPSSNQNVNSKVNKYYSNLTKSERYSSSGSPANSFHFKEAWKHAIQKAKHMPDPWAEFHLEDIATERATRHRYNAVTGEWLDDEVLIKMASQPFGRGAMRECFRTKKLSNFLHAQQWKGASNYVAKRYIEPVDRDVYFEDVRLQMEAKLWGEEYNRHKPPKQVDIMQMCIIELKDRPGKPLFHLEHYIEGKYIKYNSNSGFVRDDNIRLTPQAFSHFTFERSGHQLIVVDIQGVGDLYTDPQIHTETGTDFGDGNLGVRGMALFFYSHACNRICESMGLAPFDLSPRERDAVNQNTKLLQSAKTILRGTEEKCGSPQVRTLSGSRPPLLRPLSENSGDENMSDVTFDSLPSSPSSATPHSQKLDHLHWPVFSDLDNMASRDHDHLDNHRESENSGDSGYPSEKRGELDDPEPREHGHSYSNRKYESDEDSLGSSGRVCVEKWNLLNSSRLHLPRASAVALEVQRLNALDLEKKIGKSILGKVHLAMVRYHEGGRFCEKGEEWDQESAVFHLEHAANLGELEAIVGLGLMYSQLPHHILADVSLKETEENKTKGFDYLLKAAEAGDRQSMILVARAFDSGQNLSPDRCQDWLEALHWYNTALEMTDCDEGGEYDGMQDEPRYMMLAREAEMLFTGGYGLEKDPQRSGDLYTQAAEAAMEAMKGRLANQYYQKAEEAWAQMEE
Text: as §1

SPEG = target: T4, SPEG (Homo sapiens, UniProt Q15772); test: Imatinib-matrix competition in K562 lysate; format: binding; details: read-out: RB50 (the source's name)
T4 construct: endogenous in cells; host or cells: K562
Text: as §1

CHD5 = target: T5, CHD5 (Homo sapiens, UniProt Q8TDI0); test: Imatinib-matrix competition in K562 lysate; format: binding; details: read-out: RB50 (the source's name)
T5 construct: endogenous in cells; host or cells: K562
Text: as §1

CDC7 = target: T6, CDC7 (Homo sapiens, UniProt O00311); test: Imatinib-matrix competition in K562 lysate; format: binding; details: read-out: RB50 (the source's name)
T6 construct: endogenous in cells; host or cells: K562 lysate
Text: as §1

RP1 = target: T7, RP1 (Homo sapiens, UniProt P56715); test: Imatinib-matrix competition in K562 lysate; format: binding; details: read-out: RB50 (the source's name)
T7 construct: endogenous in cells; host or cells: K562
Text: as §1

VRK1 = target: T8, VRK1 (Homo sapiens, UniProt Q99986); test: Imatinib-matrix competition in K562 lysate; format: binding; details: read-out: RB50 (the source's name)
T8 construct: endogenous in cells; host or cells: K562
T8 sequence (Q99986 1-396): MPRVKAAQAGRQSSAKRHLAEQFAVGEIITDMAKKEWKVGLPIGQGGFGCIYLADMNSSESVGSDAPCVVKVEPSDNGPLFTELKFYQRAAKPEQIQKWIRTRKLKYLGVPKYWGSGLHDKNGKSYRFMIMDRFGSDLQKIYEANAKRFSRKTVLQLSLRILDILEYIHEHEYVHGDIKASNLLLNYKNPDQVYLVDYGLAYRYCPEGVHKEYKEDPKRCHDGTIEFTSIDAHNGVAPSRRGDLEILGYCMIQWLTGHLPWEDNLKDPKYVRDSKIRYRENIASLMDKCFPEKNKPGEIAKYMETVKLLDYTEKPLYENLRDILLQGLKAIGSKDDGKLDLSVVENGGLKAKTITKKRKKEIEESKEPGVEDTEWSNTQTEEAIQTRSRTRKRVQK
Text: as §1

TRRAP = target: T9, TRRAP (Homo sapiens, UniProt Q9Y4A5); test: Imatinib-matrix competition in K562 lysate; format: binding; details: read-out: RB50 (the source's name)
T9 construct: endogenous in cells; host or cells: K562
Text: as §1

ALPK3 = target: T10, ALPK3 (Homo sapiens, UniProt Q96L96); test: Imatinib-matrix competition in K562 lysate; format: binding; details: read-out: RB50 (the source's name)
T10 construct: endogenous in cells; host or cells: K562
Text: as §1

VRK3 = target: T11, VRK3 (Homo sapiens, UniProt Q8IV63); test: Imatinib-matrix competition in K562 lysate; format: binding; details: read-out: RB50 (the source's name)
T11 construct: endogenous in cells; host or cells: K562
Text: as §1

PBK = target: T12, PBK (Homo sapiens, UniProt Q96KB5); test: Imatinib-matrix competition in K562 lysate; format: binding; details: read-out: RB50 (the source's name)
T12 construct: endogenous in cells; host or cells: K562
T12 sequence (Q96KB5 1-322): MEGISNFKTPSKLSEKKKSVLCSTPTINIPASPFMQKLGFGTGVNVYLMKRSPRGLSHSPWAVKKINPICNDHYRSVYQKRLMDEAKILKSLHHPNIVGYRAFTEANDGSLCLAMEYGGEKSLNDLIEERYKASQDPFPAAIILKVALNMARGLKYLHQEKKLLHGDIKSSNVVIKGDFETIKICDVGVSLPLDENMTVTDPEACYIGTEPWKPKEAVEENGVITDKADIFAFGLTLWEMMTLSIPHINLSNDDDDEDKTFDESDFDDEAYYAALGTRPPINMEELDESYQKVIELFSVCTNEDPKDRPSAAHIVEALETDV
Text: as §1

Measured: IC50

Cc1ccc(NC(=O)c2ccc(CN3CCN(C)CC3)cc2)cc1Nc1nccc(-c2cccnc2)n1 [Imatinib]
> 10 µM: all assays above
